Assay results published in PubChem BioAssay AID1963839 (Molecular Pharmacology Branch, DTP, NCI, 2024).
pIC50: −log10 of the molar value. “And” between values parts separate entries of the source, which are not always exact repeats. Equal entries are not always repeated.

Tested on: 817829-284-R-J1-PDC complex spheroid viability
Test: Anticancer human tumor 817829-284-R-J1-PDC patient-derived colon adenocarcinoma cell line growth inhibition [POLQ]
Conditions: for viability, T/C: stronger effect = lower value
Method: Multicellular complex tumor spheroid response to Polymerase (POL) inhibitors (novobiocin, ART-558, RP6685) in combination with a variety of drugs and investigational agents in selected tumor cell lines
The POL inhibitors (novobiocin, ART-558, and RP6685) were evaluated both individually and in combination with standard of care and investigational anticancer small molecules within a complex spheroid model of solid tumors. . Complex spheroids include a stromal component modeled by human endothelial cells (HUVEC) and fibroblasts modeled by human mesenchymal stem cells (MSCs). The concentration ranges selected for each drug and investigational agent were based upon clinically achievable concentrations if the clinical Cmax of the agent was known.
Compounds. The drugs and investigational agents: novobiocin (NSC847541), ART-558 (NSC835418), RP-6685 (NSC848927), peposertib (NSC802822), ceralasertib (NSC780249), elimusertib (NSC800525), camonsertib (NSC841442), AZD-1390 (NSC803789), olaparib (NSC753686), talazoparib (NSC767125), rucaparib (NSC756644), sotorasib (NSC818433), MRTX-1133 (NSC836407), SN-38 (NSC673596), topotecan (NSC609699), epotoside (NSC141540), doxorubicin (NSC123127), gemcitabine (NSC613327), 5-fluorouracil (NSC19893), paclitaxel (NSC125973), vemurafenib (NSC761431), MSA-2 (NSC828583), SN-011 (NSC837082), adavosertib (NSC754352), prexasertib (NSC758257), carboplatin (NSC241240) and oxaliplatin (NSC266046), were obtained from the National Cancer Institute (NCI) Developmental Therapeutics Program Chemical Repository (21). The FDA-approved anticancer drug set is available from the Developmental Therapeutics Program at https://dtp.cancer.gov/organization/dscb/obtaining/. […] The stock solutions were prepared in dimethyl sulfoxide (DMSO, Sigma-Aldrich, St. Louis, MO, cat. D2650), except for the platinum compounds which were prepared in saline (Quality Biological, Gaithersburg, MD, cat. 114-055-101), at 800-fold the tested concentration and stored at -70 degrees C prior to their use. All drugs and investigational agents were tested over a range starting from a high concentration at or near the clinical Cmax and decreasing in half-log increments. If the clinical Cmax for an agent had not been determined, the highest concentration tested was 10 microM, except for SN-38, which was tested at a high concentration of 1 microM.
Cell Culture. All cells were maintained in an incubator at 37 degrees C and 5% CO2 with 95% humidity. The PDC lines were cultured according to standard operating procedures established by the NCI PDMR (https://pdmr.cancer.gov). Table 3 of the manuscript, lists the cell lines along with the number of the three cell types plated to form the mct-spheroids and media for tumor cell growth. After thawing, all PDC lines, except 997537-175-T-J1-PDC and 415267-285-R-J2-PDC, were cultured in Matrigel-coated flasks prepared with a working solution of 1X Ham's F-12 nutrient mix, without supplementation (Thermo Fisher Scientific, cat. 11765054), 100 U/mL penicillin-streptomycin (Thermo Fisher Scientific, cat. 15140122), and 2.5% Matrigel (Corning Inc., Corning, NY, cat. 354248) for the first three passages. The two PDC lines 997537-175-T-J1-PDC and 415267-285-R-J2-PDC were cultured on uncoated flasks. The 857933-349-R-J2-PDC line was cultured in 6C/Colon 1B media containing advanced DMEM/F-12 (Thermo Fisher Scientific, cat. 12634028), 10 mM HEPES (Thermo Fisher Scientific, cat. 15630080), 1X GlutaMAX supplement (Thermo Fisher Scientific, cat. 35050061), 0.1 mg/mL primocin (InvivoGen, San Diego, CA, cat. ant-pm-2), 10% defined fetal bovine serum, heat inactivated (HyClone Laboratories Inc., Logan, UT, cat. SH30070.03HI), 50% L-WRN conditioned media (ATCC, cat. CRL-3276), 1.25 mM N-Acetyl-L-cysteine (Sigma-Aldrich, cat. A9165), 10 mM nicotinamide (Sigma-Aldrich, cat. N0636), 1X B-27 supplement (Thermo Fisher Scientific, cat. 17504044), 1X N-2 supplement (Thermo Fisher Scientific, cat. […]
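Note: spheroids exposed to compounds for 7 days.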
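Throughout, for viability, T/C: 100% = DMSO vehicle-treated spheroids.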

## CCc1cc2c(N3CCc4c(cc(Cn5ccnc5)cc4-c4cn(C)nc4C(F)(F)F)C3=O)ccnc2c(OC)n1
Compound 0.0316 µM
  viability, T/C: 101% and 91.9% and 80.3%
Compound 0.1 µM
  viability, T/C: 81% and 77.6% and 71.7%
Compound 0.316 µM
  viability, T/C: 88.4% and 77.1% and 66.4%
Compound 1 µM
  viability, T/C: 65.8% and 68.8% and 64.9%
Compound 3.16 µM
  viability, T/C: 54.2% and 59.5% and 53.1%
Compound 10 µM
  viability, T/C: 34.8% and 38% and 33.4%
Curve of compound
  pIC50: 5.41 and 5.31 and 5.45

## CC[C@@]1(O)C(=O)OCc2c1cc1n(c2=O)Cc2cc3c(CN(C)C)c(O)ccc3nc2-1
Compound 0.000316 µM
  viability, T/C: 89.9% and 104% and 89%
Compound 0.001 µM
  viability, T/C: 72.3% and 95.7% and 74.1%
Compound 0.00316 µM
  viability, T/C: 55.4% and 82.4% and 60.1%
Compound 0.01 µM
  viability, T/C: 39.6% and 38.4% and 46%
Compound 0.0316 µM
  viability, T/C: 22.9% and 25.4% and 21.7%
Compound 0.1 µM
  viability, T/C: 15.2% and 16.8% and 14.6%
Curve of compound
  pIC50: 8.35 and 8.12 and 8.21

## Nc1ccn(C2OC(CO)C(O)C2(F)F)c(=O)n1 (stereo not given)
Compound 0.0316 µM
  viability, T/C: 5.66% and 4.03% and 5.85%
Compound 0.1 µM
  viability, T/C: 5.98% and 3.62% and 5.26%
Compound 0.316 µM
  viability, T/C: 6.49% and 4.28% and 5.54%
Compound 1 µM
  viability, T/C: 5.15% and 3.77% and 4.65%
Compound 3.16 µM
  viability, T/C: 4.26% and 2.95% and 4.25%
Compound 10 µM
  viability, T/C: 3.15% and 2.31% and 3.29%
Curve of compound
  pIC50: > 7.50

## O=c1[nH]cc(F)c(=O)[nH]1
Compound 0.0316 µM
  viability, T/C: 104% and 91.8% and 101%
Compound 0.1 µM
  viability, T/C: 104% and 98.7% and 75.8%
Compound 0.316 µM
  viability, T/C: 93% and 94.3% and 74.7%
Compound 1 µM
  viability, T/C: 69.7% and 67.1% and 72.8%
Compound 3.16 µM
  viability, T/C: 50.6% and 38.9% and 57.3%
Compound 10 µM
  viability, T/C: 44.5% and 29.5% and 45.3%
Curve of compound
  pIC50: 5.46 and 5.71 and 5.12

## C#Cc1c(F)ccc2cc(O)cc(-c3ncc4c(N5CC6CCC(C5)N6)nc(OCC56CCCN5CC(F)C6)nc4c3F)c12 (stereo not given) + Cc1cccc(N(C)C(=O)C2C(O)CCN2c2nc(C)cc(C(F)(F)F)c2C#N)c1
Curve of first compound, second compound 0.0316 µM
  pIC50: < 5.00
Curve of first compound, second compound 0.1 µM
  pIC50: < 5.00
Curve of first compound, second compound 0.316 µM
  pIC50: < 5.00
Curve of first compound, second compound 1 µM
  pIC50: 5.14
Curve of first compound, second compound 3.16 µM
  pIC50: < 5.00
Curve of first compound, second compound 10 µM
  pIC50: 5.09
Second compound 0.0316 µM, first compound 0.0316 µM
  viability, T/C: 104%
Second compound 0.0316 µM, first compound 0.1 µM
  viability, T/C: 112%
Second compound 0.0316 µM, first compound 0.316 µM
  viability, T/C: 85.5%
Second compound 0.0316 µM, first compound 1 µM
  viability, T/C: 85.9%
Second compound 0.0316 µM, first compound 3.16 µM
  viability, T/C: 112%
Second compound 0.0316 µM, first compound 10 µM
  viability, T/C: 60.9%
Second compound 0.1 µM, first compound 0.0316 µM
  viability, T/C: 93%
Second compound 0.1 µM, first compound 0.1 µM
  viability, T/C: 75.6%
Second compound 0.1 µM, first compound 0.316 µM
  viability, T/C: 88%
Second compound 0.1 µM, first compound 1 µM
  viability, T/C: 95.1%
Second compound 0.1 µM, first compound 3.16 µM
  viability, T/C: 136%
Second compound 0.1 µM, first compound 10 µM
  viability, T/C: 76%
Second compound 0.316 µM, first compound 0.0316 µM
  viability, T/C: 62.5%
Second compound 0.316 µM, first compound 0.1 µM
  viability, T/C: 75.8%
Second compound 0.316 µM, first compound 0.316 µM
  viability, T/C: 95%
Second compound 0.316 µM, first compound 1 µM
  viability, T/C: 97.9%
Second compound 0.316 µM, first compound 3.16 µM
  viability, T/C: 79.7%
Second compound 0.316 µM, first compound 10 µM
  viability, T/C: 63.5%
Second compound 1 µM, first compound 0.0316 µM
  viability, T/C: 94.7%
Second compound 1 µM, first compound 0.1 µM
  viability, T/C: 86.9%
Second compound 1 µM, first compound 0.316 µM
  viability, T/C: 93%
Second compound 1 µM, first compound 1 µM
  viability, T/C: 118%
Second compound 1 µM, first compound 3.16 µM
  viability, T/C: 97%
Second compound 1 µM, first compound 10 µM
  viability, T/C: 31.2%
Second compound 3.16 µM, first compound 0.0316 µM
  viability, T/C: 108%
Second compound 3.16 µM, first compound 0.1 µM
  viability, T/C: 82.3%
Second compound 3.16 µM, first compound 0.316 µM
  viability, T/C: 86.1%
Second compound 3.16 µM, first compound 1 µM
  viability, T/C: 87%
Second compound 3.16 µM, first compound 3.16 µM
  viability, T/C: 97.3%
Second compound 3.16 µM, first compound 10 µM
  viability, T/C: 89.4%
Second compound 10 µM, first compound 0.0316 µM
  viability, T/C: 99.7%
Second compound 10 µM, first compound 0.1 µM
  viability, T/C: 108%
Second compound 10 µM, first compound 0.316 µM
  viability, T/C: 90.2%
Second compound 10 µM, first compound 1 µM
  viability, T/C: 96.4%
Second compound 10 µM, first compound 3.16 µM
  viability, T/C: 89.3%
Second compound 10 µM, first compound 10 µM
  viability, T/C: 40.7%
